Laboratory results published in patent publication US8394786B2, “Quinazoline derivatives” (Janssen Pharmaceutica N.V., priority 2003, dated 2013).

Key:
[1] = test system: SKOV3 cells; test: Serum starved proliferation assay on the ovarian carcinoma SKOV3 cells (C3); assay type: cell-based; conditions: EGF stimulated (100 ng/ml, 72 hours, serum free) or 72 hours with compounds, MTT cell viability assay; for IC50: Homo sapiens, SK-OV-3, 72 h, read-out: SKOV3 cell (C3): pIC50 (converted)
In short: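 MTT viability read-out in SKOV3 cells after a 24 h pre-incubation in 10% FCS, in one of two formats. EGF-stimulated version: serum-free compound exposure followed by 100 ng/ml EGF (final) for 72 h at 37 °C, 5% CO2. Otherwise, compound alone for 72 h.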

[2] = target: EGFR (Homo sapiens, UniProt P00533); test: In vitro inhibition of EGFR, Flash Plate or glass-fiber filter technology (C2); assay type: biochemical; design: 0.5 μg EGFR-kinase domain/well; conditions: EGFR-kinase domain, 5.0 μM unlabeled ATP, read-out: Kinase activity.(C2): pIC50 (converted)
In short: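 Two radiometric formats were used, each with 5.0 μM unlabeled ATP, [33P]ATP, 0.5 μg EGFR kinase domain and compounds from 1·10^−10 to 1·10^−6 M. Glass-fiber filter: 25° C for 10 min, pH 7.5, Mn2+/Mg2+, acid-stopped, phosphorimager read. Streptavidin Flash Plate: biotinylated poly(GT), pH 8.0, 30° C for 60 min.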

EGFR, sequence (P00533 712-979 limits assumed): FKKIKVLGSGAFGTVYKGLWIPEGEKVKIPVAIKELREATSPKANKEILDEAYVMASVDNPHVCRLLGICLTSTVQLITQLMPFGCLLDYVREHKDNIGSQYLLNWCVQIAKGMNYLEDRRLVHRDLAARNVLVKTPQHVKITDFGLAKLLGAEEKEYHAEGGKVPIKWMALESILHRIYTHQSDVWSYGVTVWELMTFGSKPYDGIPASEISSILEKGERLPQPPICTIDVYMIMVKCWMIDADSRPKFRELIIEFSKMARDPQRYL

IC50 [1] [nM]	melting point [°C]	IC50 [2] [nM]	SKOV3 cell (C3): pIC50 [1]	SMILES
63.1	292	50.1		COc1cc2ncnc3c2cc1OCCNC(=O)CNC(=O)Cc1ccc(Cl)cc1N3 [Compound 69, 4,6-ethanediylidene-8H-pyrimido[4,5-b][6,1,9,12]benzoxatriazacyclohexadecine-11,14-dione, 18-chloro-9,10,12,13,15,20-hexahydro-21-methoxy-]
3160	236.4 to 237.3	10		COc1cc2ncnc3c2cc1OCCCNC(=O)CCNCc1ccc(Cl)cc1N3 [Compound 70, 4,6-ethanediylidenepyrimido[4,5-b][6,1,10,14]benzoxatriazacycloheptadecin-12(13H)-one, 19-chloro-8,9,10,11,14,15,16,21-octahydro-22-methoxy-]
	129.8 to 132.8			COc1cc2ncnc3c2cc1OCCCNC(=O)C1CCCN1Cc1ccc(Cl)cc1N3 (stereo not shown) [Compound 77, 4,6-ethanediylidene-12H-pyrimido[4,5-b]pyrrolo[2,1-l][6,1,10,13]benzoxatriazacyclohexadecin-12-one, 20-chloro-8,9,10,11,12a,13,14,15,17,22-decahydro-23-methoxy-]
	231.9 to 232.8			COc1cc2ncnc3c2cc1OCCCNC(=O)C1CCCN1Cc1ccc(Cl)cc1N3 (stereo not shown) [Compound 84, 4,6-ethanediylidene-12H-pyrimido[4,5-b]pyrrolo[2,1-l][6,1,10,13]benzoxatriazacyclohexadecin-12-one, 20-chloro-8,9,10,11,12a,13,14,15,17,22-decahydro-23-methoxy-]
	246.6 to 248.2			COc1cc2ncnc3c2cc1OCCNC(=O)C1CCN(CC1)Cc1ccc(Cl)cc1N3 [Compound 87, 8H-4,6-ethanediylidene-12,15-ethanopyrimido[4,5-b][6,1,9,14]benzoxatriazacycloheptadecin-11(12H)-one, 19-chloro-9,10,13,14,16,21-hexahydro-24-methoxy-]
	265			COc1cc2ncnc3c2cc1OCCNC(=O)C(C)N(C)Cc1ccc(Cl)cc1N3 (stereo not shown) [Compound 89, 4,6-ethanediylidenepyrimido[4,5-b][6,1,9,12]benzoxatriazacyclopentadecin-11(8H)-one, 17-chloro-9,10,12,13,14,19-hexahydro-20-methoxy-12,13-dimethyl-]
	240.1 to 242.8			COc1cc2ncnc3c2cc1OCCCNC(=O)C1CCCN(Cc2ccc(Cl)cc2N3)C1 (stereo not shown) [Compound 95, 12H-4,6-ethanediylidene-13,17-methanopyrimido[4,5-b][6,1,10,16]benzoxatriazacyclononadecin-12-one, 21-chloro-8,9,10,11,13,14,15,16,18,23-decahydro-25-methoxy-]
631		63.1		COc1cc2ncnc3c2cc1OCC(=O)NCC(=O)NCCc1ccc(Cl)cc1N3 [Compound 160, 4,6-ethanediylidene-8H-pyrimido[4,5-b][6,1,9,12]benzoxatriazacyclohexadecine-9,12-dione, 18-chloro-10,11,13,14,15,20-hexahydro-21-methoxy-]
398		100		COc1cc2ncnc3c2cc1OCCCCC(=O)NCCCC(=O)NCc1ccc(Cl)cc1N3 [Compound 163, 4,6-ethanediylidene-8H-pyrimido[4,5-b][6,1,12,17]benzoxatriazacycloeicosine-12,17(18H)-dione, 22-chloro-9,10,11,13,14,15,16,19,24-nonahydro-25-methoxy-]

Further lines, the compound ahead of its results:

SMILES	IC50 [1] [nM]	melting point [°C]	IC50 [2] [nM]	SKOV3 cell (C3): pIC50 [1]
COc1cc2ncnc3c2cc1OCCNC(=O)C(C)(C)NC(=O)Cc1ccc(Cl)cc1N3 [Compound 65, 4,6-ethanediylidene-8H-pyrimido[4,5-b][6,1,9,12]benzoxatriazacyclohexadecine-11,14-dione, 18-chloro-9,10,12,13,15,20-hexahydro-21-methoxy-12,12-dimethyl-]	20	285	12.6	
COc1cc2ncnc3c2cc1OCCNC(=O)C(C(C)C)NC(=O)Cc1ccc(Cl)cc1N3 (stereo not shown) [Compound 66, 4,6-ethanediylidene-8H-pyrimido[4,5-b][6,1,9,12]benzoxatriazacyclohexadecine-11,14-dione, 18-chloro-9,10,12,13,15,20-hexahydro-21-methoxy-12-(1-methylethyl)-]	10	335	79.4	
COc1cc2ncnc3c2cc1OCCNC(=O)C1CCCN1Cc1ccc(Cl)cc1N3 (stereo not shown) [Compound 71, 4,6-ethanediylidenepyrimido[4,5-b]pyrrolo[2,1-k][6,1,9,12]benzoxatriazacyclopentadecin-11(8H)-one, 19-chloro-9,10,11a,12,13,14,16,21-octahydro-22-methoxy-]		261.2 to 265	31.6	5.5
COc1cc2ncnc3c2cc1OCCNC(=O)CN(C)Cc1ccc(Cl)cc1N3 [Compound 72, 4,6-ethanediylidenepyrimido[4,5-b][6,1,9,12]benzoxatriazacyclopentadecin-11(8H)-one, 17-chloro-9,10,12,13,14,19-hexahydro-20-methoxy-13-methyl-]	10000	288.5 to 290.5	158	
CCN1CC(=O)NCCOc2cc3c(ncnc3cc2OC)Nc2cc(Cl)ccc2C1 [Compound 90, 4,6-ethanediylidenepyrimido[4,5-b][6,1,9,12]benzoxatriazacyclopentadecin-11(8H)-one, 17-chloro-13-ethyl-9,10,12,13,14,19-hexahydro-20-methoxy-]		261.1 to 262		
COc1cc2ncnc3c2cc1OCCNC(=O)C(CO)NCc1ccc(Cl)cc1N3 (stereo not shown) [Compound 91, 4,6-ethanediylidenepyrimido[4,5-b][6,1,9,12]benzoxatriazacyclopentadecin-11(8H)-one, 17-chloro-9,10,12,13,14,19-hexahydro-12-(hydroxymethyl)-20-methoxy-]		276.3 to 277.4		
COc1cc2ncnc3c2cc1OCCCNC(=O)CN1CCN(CC1)Cc1ccc(Cl)cc1N3 [Compound 93, 4,6-ethanediylidene-14,17-ethanopyrimido[4,5-b][6,1,10,13,16]benzoxatetraazacyclononadecin-12(13H)-one, 21-chloro-8,9,10,11,15,16,18,23-octahydro-26-methoxy-]		286.8 to 287.6		
COc1cc2ncnc3c2cc1OCCCC(=O)NCC(=O)NCc1ccc(Cl)cc1N3 [Compound 153, 4,6-ethenopyrimido[4,5-b][6,1,11,14]benzoxatriazacycloheptadecine-11,14(8H,15H)-dione, 19-chloro-9,10,12,13,16,21-hexahydro-22-methoxy-]	794		15.8	
COc1cc2ncnc3c2cc1OCCCC(=O)NCCCC(=O)NCc1ccc(Cl)cc1N3 [Compound 154, 4,6-ethenopyrimido[4,5-b][6,1,11,16]benzoxatriazacyclononadecine-11,16(8H,17H)-dione, 21-chloro-9,10,12,13,14,15,18,23-octahydro-24-methoxy-]	2510		39.8	
COc1cc2ncnc3c2cc1OCCCC(=O)NCCC(=O)NCc1ccc(Cl)cc1N3 [Compound 155, 4,6-etheno-8H-pyrimido[4,5-b][6,1,11,15]benzoxatriazacyclooctadecine-11,15(12H,16H)-dione, 20-chloro-9,10,13,14,17,22-hexahydro-23-methoxy-]	1000		316	
COc1cc2ncnc3c2cc1OCC(=O)NCCCC(=O)NCc1ccccc1N3 [Compound 158, 4,6-ethanediylidenepyrimido[4,5-b][6,1,9,14]benzoxatriazacycloheptadecine-9,14(8H,15H)-dione, 10,11,12,13,16,21-hexahydro-22-methoxy-]	10000		5010	
COc1cc2ncnc3c2cc1OCC(=O)N(C)CC(=O)NCc1ccc(Cl)cc1N3 [Compound 159, 4,6-ethanediylidenepyrimido[4,5-b][6,1,9,12]benzoxatriazacyclopentadecine-9,12(8H,13H)-dione, 17-chloro-10,11,14,19-tetrahydro-20-methoxy-10-methyl-]	2000		316	
COc1cc2ncnc3c2cc1OCC(=O)NCCCC(=O)NCCc1ccc(Cl)cc1N3 [Compound 161, 4,6-ethanediylidene-8H-pyrimido[4,5-b][6,1,9,14]benzoxatriazacyclooctadecine-9,14-dione, 20-chloro-10,11,12,13,15,16,17,22-octahydro-23-methoxy-]	1260		63.1	
COc1cc2ncnc3c2cc1OCCCCC(=O)NCCC(=O)NCc1ccc(Cl)cc1N3 [Compound 162, 4,6-ethanediylidenepyrimido[4,5-b][6,1,12,16]benzoxatriazacyclononadecine-12,16(13H,17H)-dione, 21-chloro-8,9,10,11,14,15,18,23-octahydro-24-methoxy-]	50.1		158	
COc1cc2ncnc3c2cc1OCC(=O)N(C)CC(=O)NCCc1ccc(Cl)cc1N3 [Compound 164, 4,6-ethanediylidene-8H-pyrimido[4,5-b][6,1,9,12]benzoxatriazacyclohexadecine-9,12-dione, 18-chloro-10,11,13,14,15,20-hexahydro-21-methoxy-10-methyl-]	158		501	
